Laboratory results: ChEMBL document CHEMBL1128102, “1,5-Benzodiazepines as CCK-B antagonists. Effect of halogen substitution at the benzo-fused ring on potency and selectivity” (Bioorg Med Chem Lett, 1995)

Experiments:
[1] = target: Cholecystokinin receptor (Homo sapiens) (UniProt P32239+P32238); assay: Selectivity was determined as the ratio for binding affinities of CCK-A receptor to CCK-B receptor; format: protein assay
[2] = target: T1, Cholecystokinin receptor type A (Rattus norvegicus, UniProt P30551); assay: Binding affinity was measured by its ability to displace [3H]CCK-8S from CCK-A receptor in rat pancreas
T1 sequence (P30551 whole entry): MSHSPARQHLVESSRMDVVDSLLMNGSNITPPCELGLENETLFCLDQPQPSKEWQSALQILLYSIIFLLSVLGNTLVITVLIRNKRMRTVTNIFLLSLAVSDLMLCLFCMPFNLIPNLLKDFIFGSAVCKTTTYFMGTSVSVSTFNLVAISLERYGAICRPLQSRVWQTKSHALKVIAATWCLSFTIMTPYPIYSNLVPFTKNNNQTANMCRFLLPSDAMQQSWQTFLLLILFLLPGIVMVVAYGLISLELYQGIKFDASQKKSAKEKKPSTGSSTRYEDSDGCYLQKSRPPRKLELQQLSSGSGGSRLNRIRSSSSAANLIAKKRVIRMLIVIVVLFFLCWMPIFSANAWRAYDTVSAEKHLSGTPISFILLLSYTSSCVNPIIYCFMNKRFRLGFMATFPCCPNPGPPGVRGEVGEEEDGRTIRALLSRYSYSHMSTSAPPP

Chain of Cholecystokinin receptor (Homo sapiens) (P32238 whole entry, looked up): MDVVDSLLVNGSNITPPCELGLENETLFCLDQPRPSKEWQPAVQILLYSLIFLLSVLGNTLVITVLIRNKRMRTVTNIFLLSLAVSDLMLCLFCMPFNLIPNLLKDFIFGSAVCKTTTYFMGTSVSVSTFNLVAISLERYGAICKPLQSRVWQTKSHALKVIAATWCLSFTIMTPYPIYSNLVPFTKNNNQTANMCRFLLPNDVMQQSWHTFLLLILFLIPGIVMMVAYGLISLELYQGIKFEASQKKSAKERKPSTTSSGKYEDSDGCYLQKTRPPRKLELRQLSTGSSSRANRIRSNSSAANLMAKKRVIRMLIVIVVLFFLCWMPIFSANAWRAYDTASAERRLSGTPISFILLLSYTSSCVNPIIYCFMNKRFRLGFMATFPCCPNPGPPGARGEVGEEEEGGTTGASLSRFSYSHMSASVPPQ
Chain of Cholecystokinin receptor (Homo sapiens) (P32239 whole entry, looked up): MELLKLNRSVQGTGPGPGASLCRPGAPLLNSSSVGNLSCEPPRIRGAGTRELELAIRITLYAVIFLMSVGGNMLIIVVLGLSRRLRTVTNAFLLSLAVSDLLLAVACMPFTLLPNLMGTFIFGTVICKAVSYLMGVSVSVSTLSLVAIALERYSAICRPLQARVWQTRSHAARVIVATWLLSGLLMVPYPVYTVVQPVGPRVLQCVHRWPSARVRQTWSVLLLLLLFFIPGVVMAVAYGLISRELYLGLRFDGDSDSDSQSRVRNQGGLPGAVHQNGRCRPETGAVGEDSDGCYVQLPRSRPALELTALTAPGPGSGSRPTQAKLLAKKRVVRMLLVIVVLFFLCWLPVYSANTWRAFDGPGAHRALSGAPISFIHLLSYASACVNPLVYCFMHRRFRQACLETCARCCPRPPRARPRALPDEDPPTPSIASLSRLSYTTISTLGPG

Row | Structure (SMILES) | Ratio [1] | Ki [2] [nM]
1 | CC(C)CCN1C(=O)C(NC(=O)Nc2ccccc2)C(=O)N(c2ccccc2)c2cc(Cl)c(Cl)cc21 (stereo not given) | 162 | 9.77
2 | CC(C)CCN1C(=O)C(NC(=O)Nc2ccccc2)C(=O)N(c2ccccc2)c2cc(Cl)ccc21 (stereo not given) | 195 | 4.9
3 | CC(C)CCN1C(=O)C(NC(=O)Nc2ccccc2)C(=O)N(c2ccccc2)c2ccc(F)cc21 (stereo not given) | > 110 | 8.91
4 | CC(C)CCN1C(=O)C(NC(=O)Nc2ccccc2)C(=O)N(c2ccccc2)c2cc(F)ccc21 (stereo not given) | 49 | 4.57
5 | CC(C)CCN1C(=O)C(NC(=O)Nc2ccccc2)C(=O)N(c2ccccc2)c2ccc(Cl)cc21 (stereo not given) | 23 | 41.7
